The results in this text go back to ChEMBL document CHEMBL1201862, “PubChem BioAssay data set” (2004).

SMILES strings stand for the structures.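 Exposure lasted 48 hours, with cells grown in 96-well plates and compounds tested at five concentrations. GI50 is the concentration that inhibits growth by half.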 Calls of active or inactive are those of the source. Rule as the data show it: active = GI50 up to about 1.1 µM and inactive = higher.

What all share (assay): inhibition of tumour cell growth, NCI panel, 48 h
For test [1], the system named is BT-549.
The subject of test [2] is CCRF-CEM.
The test system of test [3] is EKVX.
In test [4] the test system is HCT-116.
The test system of test [5] is Hs-578T.
Test [6] deals with KM12.
The subject of test [7] is LOX IMVI.
For test [8], the system named is M14.
The subject of test [9] is OVCAR-3.
Test [10] concerns OVCAR-8.
In test [11] the test system is PC-3.
In test [12] the test system is SK-OV-3.
Test [13] deals with SNB-75.
Test [14] deals with T47D.
For test [15], the system named is UACC-62.
Test [16] deals with UO-31.
The subject of test [17] is DLD-1.
Test [18] concerns HOP-18.
Test [19] relates to KM-20L2.
Test [20] concerns XF498.

Turning to `CC(NC(=O)C(NC(=O)CNC(=O)OC(C)(C)C)C(C)C)C(=O)Oc1c(Cl)c(Cl)c(Cl)c(Cl)c1Cl` (stereo not drawn), the GI50 in test [1] is 23.8 µM (inactive); in test [2] it was 51.1 µM (inactive); in [3], 27.4 µM (inactive); in test [4], 17.3 µM (inactive); in [5] it was 20.1 µM (inactive); in [6], 15.1 µM (inactive). Also, the GI50 in test [7] is 15.5 µM (inactive); in test [8], 18.8 µM (inactive); in [9], 13.2 µM (inactive); in test [10], 19.4 µM (inactive); in test [11] it was 16 µM (inactive); in test [12] it was 21.5 µM (inactive). The GI50 in test [13] is 28 µM (inactive); in test [14] it was 23.1 µM (inactive); in test [15], 18.2 µM (inactive); in test [16], 16 µM (inactive).

For `Cc1cc(OCC(O)CO)ccc1Cl` (stereo not drawn), the GI50 in [2], in [17], in test [3], in [4], in test [18] and in test [19] was > 100 µM (inactive) throughout. Besides, the GI50 in test [6], in [7], in test [8], in [9], in test [10] and in test [12] was > 100 µM (inactive) each time. The GI50 in test [13] was 87.3 µM (inactive); in test [15] it was > 100 µM (inactive); in test [16], > 100 µM (inactive).

On to `COC(=O)/C(=C\c1ccco1)P(=O)(OC)OC`, for which the GI50 was 26.6 µM (inactive) in test [1]; 30.5 µM (inactive) in test [2]; 43.3 µM (inactive) in test [3]; 44 µM (inactive) in [4]; 54.1 µM (inactive) in test [5]; > 100 µM (inactive) in test [6]. Further, the GI50 is 19.9 µM (inactive) in test [7]; 55.7 µM (inactive) in test [8]; 26.9 µM (inactive) in test [9]; 31.5 µM (inactive) in test [10]; 73.5 µM (inactive) in test [11]; 73.6 µM (inactive) in test [12]. Moreover, the GI50 in test [13] is 35.2 µM (inactive); in test [14], > 100 µM (inactive); in [15], 47.6 µM (inactive).

On to `O=[N+]([O-])c1ccc(CNC2=NNS(=O)(=O)c3ccccc32)cc1`, for which the GI50 in [2] is 19.5 µM (inactive); in test [17], > 100 µM (inactive); in [3], > 100 µM (inactive); in test [4] it was > 100 µM (inactive); in test [19], > 100 µM (inactive); in test [6] it was > 100 µM (inactive). Moreover, the GI50 in test [7] is 54 µM (inactive); in [8] it was > 100 µM (inactive); in [9], > 100 µM (inactive); in test [10] it was > 100 µM (inactive); in [15], 34.6 µM (inactive); in test [16] it was > 100 µM (inactive). Also, the GI50 in test [20] was > 100 µM (inactive).

For the compound `CC/C(CC(=O)CCC(=O)Nc1ccc(C)c(C)c1)=N\NC(=O)c1cc2ccccc2cc1O`, the GI50 in test [2] was 5.2 µM (inactive); in [17], 13.4 µM (inactive); in [3], 27.5 µM (inactive); in [4] it was 37.6 µM (inactive); in test [18] it was 15.2 µM (inactive); in test [19], > 10 µM (inactive). Moreover, the GI50 in test [6] is 38.4 µM (inactive); in [7] it was 16.1 µM (inactive); in [8], 17.1 µM (inactive); in test [9] it was 18.6 µM (inactive); in test [10] it was 21.4 µM (inactive); in test [12], 13.6 µM (inactive). Also, the GI50 in test [15] is 14.6 µM (inactive); in [16], 26 µM (inactive).

As for `Cc1nc(Nc2nnc(-c3cc([N+](=O)[O-])cc([N+](=O)[O-])c3C)o2)sc1C(=O)CC(=O)Cc1nc2ccc(Cl)cc2nc1O`, the GI50 is > 100 µM (inactive) in test [2]; 37.3 µM (inactive) in test [3]; > 100 µM (inactive) in test [4]; > 100 µM (inactive) in [19]; > 100 µM (inactive) in [6]; > 100 µM (inactive) in test [7]. In addition, the GI50 was > 100 µM (inactive) in [8]; > 100 µM (inactive) in [10]; > 100 µM (inactive) in [12]; > 100 µM (inactive) in test [13]; 33.6 µM (inactive) in [15]; > 100 µM (inactive) in [16]. In [20], the GI50 was > 100 µM (inactive).

Take `CN(C)C(=S)/N=C1\SC(=N\c2ccccc2)/C(=N/c2ccccc2)N1c1ccc([N+](=O)[O-])cc1`: the GI50 in test [1], in test [2], in test [4], in [5], in test [6] and in test [8] was > 100 µM (inactive) in each case. Also, the GI50 in test [9] is > 100 µM (inactive); in test [10], > 100 µM (inactive); in test [11] it was 8.32 µM (inactive); in test [12], > 100 µM (inactive); in test [13], > 100 µM (inactive); in test [14], > 100 µM (inactive). In addition, the GI50 in test [15] and in [16] was > 100 µM (inactive) in each case.

On to `CN(C)C(=S)/N=c1\ss/c(=N\C(=S)N(C)C)n1C1CCCCC1`, for which the GI50 in test [2] was 32.7 µM (inactive); in test [3], > 100 µM (inactive); in test [4], > 100 µM (inactive); in test [19], > 100 µM (inactive); in test [6], > 100 µM (inactive); in test [7], 86.3 µM (inactive). The GI50 in test [8] is > 100 µM (inactive); in test [9], > 100 µM (inactive); in [10], 84.3 µM (inactive); in test [12], > 100 µM (inactive); in test [13], 76.4 µM (inactive); in test [15], 1.06 µM (active). Also, the GI50 in test [16] is > 100 µM (inactive).

Consider `CC1(C)O[C@H](C(=O)O)[C@@H](C(=O)O)O1`, for which the GI50 in test [2], in test [3], in test [4], in test [5], in test [6] and in [7] was > 100 µM (inactive) throughout. Moreover, the GI50 in [8], in test [10], in [11], in test [12], in test [13] and in test [14] was > 100 µM (inactive) each time. The GI50 in [15] was > 100 µM (inactive).

Turning to `COc1ccc(-c2cc(O)c3cc(C)cnc3n2)cc1`, the GI50 in [1] is 2 µM (inactive); in [2], 3.21 µM (inactive); in test [3], 37 µM (inactive); in test [5], 4.66 µM (inactive); in [6], 3.56 µM (inactive); in test [7], 6.5 µM (inactive). For the same compound, the GI50 is 3.94 µM (inactive) in test [8]; 4.57 µM (inactive) in [10]; 4.14 µM (inactive) in [12]; 5.38 µM (inactive) in [14]; 4.29 µM (inactive) in test [15]; 7.85 µM (inactive) in [16].
